Assay results reported in patent publication US7875270B2, “Treatment solution and method for preventing posterior capsular opacification by selectively inducing detachment and/or death of lens epithelial cells” (Abbott Medical Optics Inc., priority 2002, dated 2011).

Tested on: in vivo rabbit eyes
Assay: In vivo prevention of PCO after cataract operation in rabbit eyes
Details: bumetanide and hyperosmotic NaCl
Experimental: The experimental group includes sixteen rabbit eyes and the control group includes four rabbit eyes. A sham cataract operation is performed on the control animals. The therapy is introduced to the others.
The pupil of each rabbit eye is preoperatively dilated with topical G Phenylephrine 10% (Alcon Labs., Inc., China) and G Cyclopentolate 1% (Bausch & Lomb Pharm., Inc., USA) three times in one hour. The rabbits are anesthetized with ketamine hydrochloride (5 mg kg-1) and xylazine hydrochloride (2 mg kg-1) and placed on an operating table. A topical anesthetic (Dieaine hydrochloride 1%) is used every five minutes on two occasions. A wire lid speculum is placed to hold the eyelids open.
A 3.2 mm scleral tunnel incision into the eye is formed at the temporal limbus. The anterior chamber is maintained with viscoelastic substances and a 4-5 mm diameter continuous curvilinear capsularhexis (CCC) is made on the anterior surface of the lens to open its bag. The treatment solution is first introduced in the LECs by hydrodissection. This ensures that the treatment fluid immediately reaches under the entire anterior capsule/LECs. This process allows for (i) separation of the lens cortex from the capsule and lens epithelium, making removal of the lens cortex easier at a later stage of the operation and (ii) the LECs to be exposed to the treatment for enough time (more than five minutes in total time).
The crystalline lens is then removed using phacoemulsification (Universal II, Alcon Labs., Inc., China). The remaining cortex is aspirated thoroughly and removed as completely as possible to expose the LECs. The lens capsular bag is then partially filed with viscoelastic material in order to maintain its shape. The viscoelastic material should not cover the LECs when the treatment solution is applied.
The treatment is spread over the inner surface of the anterior capsular bag (where the LECs attach). The anterior capsular is continuously filled by using a syringe with a bent needle. Care is taken not to over flow the bag. After the treatment solution covered the capsule bag, it is left for five minutes and then removed using a syringe.
In a few cases, IOLs are inserted. […] At the same time, the incision is enlarged to 6.0 mm and a posterior ocular lens (IOLs) (poly-methyl methacrylate, PMMA) with a 6.5 mm optic is prepared and placed into the capsular bag.
The wound is closed with or without suture.
At the completion of the surgical procedure, each rabbit eye receives subconjunctival dexamethasone (0.25 ml) and gentamicin (0.25 ml). Postoperatively, atropine sulphate 1% ophthalmic solution and neomycin sulphate-polymyxin sulphate-dexamethasone ophthalmic ointment are administered twice daily for three weeks.
The animals are evaluated for three weeks and ten weeks. […] All rabbits are evaluated by slitlamp and scored for ocular responses at 1 day and at 1, 2 and 3 weeks. (See FIG. 17, Table 1.) Three and ten weeks after surgery, the animals are anesthetized using a 2 ml intramuscular injection of 11:1 mixture of ketamine hydrochloride and xylazine 20 mg/ml and then killed with a 2 ml intravenous injection of sodium pentobarbital.
The eye globes are enucleated (some of them fixed in neutral buffered formalin 10% solution for 24 hours) and are bisected coronally just anterior to the equator. Gross examination is performed to assess. PCO development. Photographs are taken from behind (Miyake-Apple posterior photographic technique) by using a digital camera fitted to an operating microscope (Leica/Wild MZ-8, Vashaw Scientific, Inc.).
The extent and severity of PCO is scored (see FIG. 17, Table 1) according to methods reported in the literature. The lens capsules are then fixed and evaluated under a microscope (Olumpus, Optical Co. Ltd.) and photographed with a digital camera.

CCCCNc1cc(C(=O)O)cc(S(N)(=O)=O)c1Oc1ccccc1 [bumetanide]
Soemmering's ring: Some degree of Soemmering's ring forms | cell proliferation on the lens anterior capsule (three weeks): not significant cell proliferation | development of CPCO and PPCO (three weeks follow up): no CPCO and PPCO develop
